Measured values: PMC9187613 (Bioorganic chemistry, 2022)
“Also recorded” adds a separate entry of the source. Like-named read-outs stand apart in the source and are kept apart here.

Tests used:
[1] = system: Vero cells; assay: Cytotoxicity assay; conditions: for CC50: 48 h, LDH release
[2] = molecular target: ZIKV NS2B-NS3 protease (Zika virus, UniProt A0A024B7W1); assay: NS2B-NS3 protease activity assay; assay type: biochemical; conditions: for inhibition of protease activity: single 200 μM concentration, 80% threshold
[3] = molecular target: ZIKV NS5 RdRp (Zika virus, UniProt A0A024B7W1); assay: NS5 RNA-dependent RNA-polymerase activity assay; assay type: biochemical; conditions: for inhibition of the RdRp (in words): activity assays
[4] = system: Zika virus (ATCC strain MR 766); assay: ZIKV replication in Vero cells, virus titers by plaque assay; conditions: for concentration at which replication was blocked completely: 48 h; for EC50: read-out: Antiviral EC50, MOI 1, 48 h, plaque assay
[5] = system: papain-like protease (PL^pro); conditions: cited from earlier work
[6] = system: DENV2 NS2B-NS3 protease; conditions: cited from earlier work
[7] = read-out: NS3pro IC50, 4 nM enzyme, 30 μM Bz-nKRR-AMC, 37 °C

ZIKV NS2B-NS3 protease, sequence (A0A024B7W1 1425-1464): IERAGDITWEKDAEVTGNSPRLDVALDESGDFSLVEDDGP
ZIKV NS2B-NS3 protease, sequence (A0A024B7W1 1503-1680): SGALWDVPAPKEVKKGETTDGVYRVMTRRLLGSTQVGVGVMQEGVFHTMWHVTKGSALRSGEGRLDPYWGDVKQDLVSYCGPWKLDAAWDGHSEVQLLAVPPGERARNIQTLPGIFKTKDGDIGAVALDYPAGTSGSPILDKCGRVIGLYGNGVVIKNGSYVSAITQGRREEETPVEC
ZIKV NS5 RdRp, sequence (A0A024B7W1 2826-3423): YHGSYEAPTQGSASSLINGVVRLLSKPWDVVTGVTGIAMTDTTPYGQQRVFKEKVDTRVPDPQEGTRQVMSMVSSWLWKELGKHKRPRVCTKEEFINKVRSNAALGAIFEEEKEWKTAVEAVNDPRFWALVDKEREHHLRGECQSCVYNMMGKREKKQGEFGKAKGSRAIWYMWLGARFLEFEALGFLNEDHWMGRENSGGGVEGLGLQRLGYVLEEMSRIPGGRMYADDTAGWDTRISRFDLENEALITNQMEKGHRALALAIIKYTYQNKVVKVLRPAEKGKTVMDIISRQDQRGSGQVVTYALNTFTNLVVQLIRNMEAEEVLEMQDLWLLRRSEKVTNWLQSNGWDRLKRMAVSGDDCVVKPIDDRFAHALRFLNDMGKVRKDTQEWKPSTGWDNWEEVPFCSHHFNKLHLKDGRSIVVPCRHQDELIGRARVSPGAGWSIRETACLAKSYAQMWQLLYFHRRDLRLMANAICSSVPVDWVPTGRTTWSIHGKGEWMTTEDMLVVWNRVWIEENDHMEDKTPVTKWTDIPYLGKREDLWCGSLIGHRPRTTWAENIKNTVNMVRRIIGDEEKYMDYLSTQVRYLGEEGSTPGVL

SMILES | CC50 [1] [µM] | IC50 [2, 7] [µM] | inhibition of protease activity [2] [%] | inhibition of the RdRp (in words) [3] | concentration at which replication was blocked completely [4] [µM] | EC50 [4] [µM] | mode of DENV2 NS2B-NS3 protease inhibition [6] | other results
C=C(C)C(Cc1c(OC)ccc(C(=O)/C=C/c2ccc(O)cc2)c1O)OO (centres unmarked) [XA-E, Xanthoangelol E] | 111 ± 10 | 18 ± 5 | > 80 | XA, but not 4HD or XA-E, inhibited | 75 | 22 | – | mode of protease inhibition ([2]; Michaelis-Menten and Lineweaver-Burk, consistent Km, decreasing Vmax): noncompetitive mode of inhibition; mode of SARS-CoV PL^pro inhibition [5]: non-competitive mode; IC50 ([5]; read-out: SARS-CoV PL^pro IC50): 1.2 µM
COc1ccc(C(=O)/C=C/c2ccc(O)cc2)c(O)c1CC=C(C)C [4-HD, 4-hydroxyderricin] | 103 ± 14 | 47 ± 10 | > 80 | XA, but not 4HD or XA-E, inhibited | 45 | 6.6 | – | –
CC(C)=CC[C@@H]1C(C)=CC[C@@H](c2ccccc2)[C@@H]1C(=O)c1c(O)cc(O)cc1O [4-hydroxypanduratin A] | – | – | – | – | – | – | competitive inhibitory activity | –
CC(C)=CCC/C(C)=C/Cc1c(O)ccc(C(=O)/C=C/c2ccc(O)cc2)c1O [XA, Xanthoangelol] | – | – | – | – | – | – | – | cytotoxic effects (in words) [1]: did not display cytotoxic; IC50 [2]: 50 ± 5 µM; inhibition at 200 µM ([2]; read-out: inhibition of protease activity): > 80%; IC50 [3]: 6.9 ± 0.9 µM; inhibition of polymerase activity ([3]; 20 μM endpoint assay): 85%; anti-ZIKV activity (in words) ([4]; concentrations exceeding 50 μM): relatively weak anti-ZIKV activity; also recorded: only weak inhibition of ZIKV growth
COc1cc(O)c(C(=O)[C@@H]2[C@H](CC=C(C)C)C(C)=CC[C@H]2c2ccccc2)c(O)c1 [panduratin A] | – | – | – | – | – | – | competitive inhibitory activity | –
